Experimental data as given in US11591355B2 (Peloton Therapeutics, Inc., priority 2017, dated 2023).

Experiments:
[1] = biological target: T1, CD73 on U138 human neuroglioma cells (Homo sapiens, UniProt P21589); assay: CD73 Cell-Based Assay; settings: U138 cells, AMP substrate, 2 hours at 37° C., inorganic phosphate by malachite green
T1 construct: U138 cells were obtained from ATCC and cultured in DMEM with 10% FBS; host or cells: U138 human neuroglioma cells
T1 sequence (P21589 27-549): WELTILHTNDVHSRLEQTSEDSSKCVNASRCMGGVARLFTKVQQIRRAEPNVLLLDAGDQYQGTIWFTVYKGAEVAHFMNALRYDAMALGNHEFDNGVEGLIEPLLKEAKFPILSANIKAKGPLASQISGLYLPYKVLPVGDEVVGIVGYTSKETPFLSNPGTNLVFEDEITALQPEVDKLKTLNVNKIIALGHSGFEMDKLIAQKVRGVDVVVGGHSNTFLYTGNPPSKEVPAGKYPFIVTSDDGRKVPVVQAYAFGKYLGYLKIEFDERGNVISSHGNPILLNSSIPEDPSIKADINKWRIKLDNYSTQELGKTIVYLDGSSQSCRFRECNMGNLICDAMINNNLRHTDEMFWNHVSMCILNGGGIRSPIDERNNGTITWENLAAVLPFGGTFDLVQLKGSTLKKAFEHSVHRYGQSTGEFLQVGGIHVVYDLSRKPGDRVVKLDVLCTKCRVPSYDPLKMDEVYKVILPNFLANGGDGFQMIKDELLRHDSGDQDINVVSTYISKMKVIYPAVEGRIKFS
Experimental: U138 human neuroglioma cells were used in these experiments. U138 cells were obtained from ATCC and cultured in DMEM with 10% FBS. 2500 cells were seeded into 96-well plate with 100 μL of media the day before the experiment. Cells were washed twice with 200 μL of assay buffer (20 mM HEPES, pH 7.4; 137 mM NaCl; 5.4 mM KCl; 1.3 mM CaCl2); 4.2 mM NaHCO3; 1 mg/mL glucose) to remove residual inorganic phosphate. After washing, 100 μL of buffer was added to each well, then 100 μL of a mixture of AMP substrate (200 μM) and diluted compound was added to each well. The cells were incubated at 37° C. (with 5% CO2) for 2 hours. 50 μL of supernatant was transferred to a 96-well assay plate and the concentration of inorganic phosphate was determined using malachite green reagent (R&D System; Cat: DY996).

Human CD73 = biological target: T2, Human CD73 (Homo sapiens, UniProt P21589); assay: CD73 Enzyme Assay; format: biochemical; settings: 0.25 nM hCD73, 25 μM AMP, kinetic read at 360 nm; read-out: CD73 Enzyme Assay IC50
T2 construct: purchased R&D Systems; host or cells: CHO cells
T2 sequence (P21589 27-549): T1 sequence (P21589 27-549)

Row | Compound | IC50 [1] [nM] | IC50 (Human CD73) [nM]
1 | C[C@H](Nc1nc(Cl)nc2c1ccn2[C@@H]1O[C@H](COCP(=O)(O)O)[C@@H](O)[C@H]1O)c1ccc(F)cc1 [Compound 68, [(2R,3S,4R,5R)-5-[2-chloro-4-[[(1S)-1-(4-fluorophenyl)ethyl]-amino]pyrrolo[2,3-d]-pyrimidin-7-yl]-3,4-dihydroxy-tetrahydro-furan-2-yl]methoxy-methylphosphonic acid] | 10 to 100 | 10 to 100
2 | C[C@@H](Nc1nc(Cl)nc2c1ccn2[C@@H]1O[C@H](COCP(=O)(O)O)[C@@H](O)[C@H]1O)c1ccc(F)cc1 [Compound 69, [(2R,3S,4R,5R)-5-[2-chloro-4-[[(1R)-1-(4-fluorophenyl)ethyl]-amino]pyrrolo[2,3-d]-pyrimidin-7-yl]-3,4-dihydroxy-tetrahydro-furan-2-yl]methoxy-methylphosphonic acid] | < 10 | < 10
3 | O=P(O)(O)COC[C@H]1O[C@@H](n2ccc3c(NC4CCCC4)nc(Cl)nc32)[C@H](O)[C@@H]1O [Compound 70, [(2R,3S,4R,5R)-5-[2-chloro-4-(cyclopentylamino)pyrrolo[2,3-d]pyrimidin-7-yl]-3,4-dihydroxy-tetrahydrofuran-2-yl]methoxymethylphosphonic acid] | < 10 | < 10
4 | N#Cc1nc(NC2CCCC2)c2ccn([C@@H]3O[C@H](COCP(=O)(O)O)[C@@H](O)[C@H]3O)c2n1 [Compound 71, [(2R,3S,4R,5R)-5-[2-cyano-4-(cyclopentyl-amino)pyrrolo[2,3-d]-pyrimidin-7-yl]-3,4-dihydroxy-tetrahydro-furan-2-yl]methoxy-methylphosphonic acid] | < 10 | < 10
5 | C[C@H](Nc1nc(C#N)nc2c1ccn2[C@@H]1O[C@H](COCP(=O)(O)O)[C@@H](O)[C@H]1O)c1ccc(F)cc1 [Compound 72, [(2R,3S,4R,5R)-5-[2-cyano-4-[[(1S)-1-(4-fluorophenyl)ethyl]-amino]pyrrolo[2,3-d]-pyrimidin-7-yl]-3,4-dihydroxy-tetrahydro-furan-2-yl]methoxy-methylphosphonic acid] | < 10 | < 10
6 | C[C@@H](Nc1nc(C#N)nc2c1ccn2[C@@H]1O[C@H](COCP(=O)(O)O)[C@@H](O)[C@H]1O)c1ccc(F)cc1 [Compound 73, [(2R,3S,4R,5R)-5-[2-cyano-4-[[(1R)-1-(4-fluorophenyl)ethyl]-amino]pyrrolo[2,3-d]-pyrimidin-7-yl]-3,4-dihydroxy-tetrahydro-furan-2-yl]methoxy-methylphosphonic acid] | < 10 | < 10
7 | C[C@H](Nc1nc(Cl)nc2c1ccn2[C@@H]1O[C@H](COCP(=O)(O)O)[C@@H](O)[C@H]1O)c1cccc(F)c1 [Compound 74, [(2R,3S,4R,5R)-5-[2-chloro-4-[[(1S)-1-(3-fluorophenyl)ethyl]-amino]pyrrolo[2,3-d]-pyrimidin-7-yl]-3,4-dihydroxy-tetrahydro-furan-2-yl]methoxy-methylphosphonic acid] | 10 to 100 | < 10
8 | C[C@H](Nc1nc(C#N)nc2c1ccn2[C@@H]1O[C@H](COCP(=O)(O)O)[C@@H](O)[C@H]1O)c1cccc(F)c1 [Compound 75, [(2R,3S,4R,5R)-5-[2-cyano-4-[[(1S)-1-(3-fluorophenyl)ethyl]-amino]pyrrolo[2,3-d]-pyrimidin-7-yl]-3,4-dihydroxy-tetrahydro-furan-2-yl]methoxy-methylphosphonic acid] | 10 to 100 | < 10
9 | C[C@H](Nc1nc(Cl)nc2c1c(F)cn2[C@@H]1O[C@H](COCP(=O)(O)O)[C@@H](O)[C@H]1O)c1ccccc1 [Compound 76, ((((2R,3S,4R,5R)-5-(2-chloro-5-fluoro-4-(((S)-1-phenylethyl)amino)-7H-pyrrolo[2,3-d]pyrimidin-7-yl)-3,4-dihydroxytetrahydrofuran-2-yl)methoxy)methyl)phosphonic acid] | 10 to 100 | < 10
